Results: ChEMBL document CHEMBL1201861, “Genomics of Drug Sensitity in Cancer screening data, Wellcome Trust Sanger Institute”

How the values were obtained:
Test in all cases: cells
IST-MEL1 = format: functional, cell-based, Homo sapiens; settings: Homo sapiens, IST-MEL1;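 note: growth inhibition of the cell line, read out with a cell viability assay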
Description: SANGER: Inhibition of human IST-MEL1 cell growth in a cell viability assay.

MZ2-MEL = format: functional, cell-based, Homo sapiens; settings: Homo sapiens, MZ2-MEL;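 note: growth inhibition of MZ2-MEL cells read out with a cell viability assay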
Description: SANGER: Inhibition of human MZ2-MEL cell growth in a cell viability assay.

BT-474 = format: functional, cell-based, Homo sapiens; settings: Homo sapiens, BT-474
Description: SANGER: Inhibition of human BT-474 cell growth in a cell viability assay.

ACN = format: functional, cell-based, Homo sapiens; settings: Homo sapiens, ACN;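 note: growth inhibition of the human ACN cell line, read out via cell viability testing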
Description: SANGER: Inhibition of human ACN cell growth in a cell viability assay.

LS-411N = format: functional, cell-based, Homo sapiens; settings: Homo sapiens, LS-411N
SW 954 = format: functional, cell-based, Homo sapiens; settings: Homo sapiens, SW 954;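 note: growth inhibition of SW954 human cancer cells, read out as cell viability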
Description: SANGER: Inhibition of human SW954 cell growth in a cell viability assay.

HEL = format: functional, cell-based, Homo sapiens; settings: Homo sapiens, HEL;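 note: growth inhibition of HEL cells, read out with a cell viability assay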
Description: SANGER: Inhibition of human HEL cell growth in a cell viability assay.

RPMI-8226 = format: functional, cell-based, Homo sapiens; settings: Homo sapiens, RPMI-8226
Description: SANGER: Inhibition of human RPMI-8226 cell growth in a cell viability assay.

EM-2 = format: functional, cell-based, Homo sapiens; settings: Homo sapiens, EM-2;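 note: growth inhibition of EM-2 cells, read out with a cell viability assay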
Description: SANGER: Inhibition of human EM-2 cell growth in a cell viability assay.

MPP-89 = format: functional, cell-based, Homo sapiens; settings: Homo sapiens, MPP-89;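 note: growth inhibition of human MPP-89 cells, read out with a cell viability assay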
Description: SANGER: Inhibition of human MPP-89 cell growth in a cell viability assay.

KNS-81-FD = format: functional, cell-based, Homo sapiens; settings: Homo sapiens, KNS-81-FD;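 note: growth inhibition of KNS-81-FD cells, read out with a cell viability assay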
Description: SANGER: Inhibition of human KNS-81-FD cell growth in a cell viability assay.

KE-37 = format: functional, cell-based, Homo sapiens; settings: Homo sapiens, KE-37;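 note: growth inhibition of KE-37 cells, read out with a cell viability assay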
Description: SANGER: Inhibition of human KE-37 cell growth in a cell viability assay.

CGTH-W-1 = format: functional, cell-based, Homo sapiens; settings: Homo sapiens, CGTH-W-1;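 note: growth inhibition of human CGTH-W-1 cells measured by cell viability assay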
Description: SANGER: Inhibition of human CGTH-W-1 cell growth in a cell viability assay.

OCUB-M = format: functional, cell-based, Homo sapiens; settings: Homo sapiens, OCUB-M;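 note: growth inhibition of the cancer cell line, read out through a cell viability assay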
Description: SANGER: Inhibition of human OCUB-M cell growth in a cell viability assay.

A498 = format: functional, cell-based, Homo sapiens; settings: Homo sapiens, A498;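 note: growth inhibition of human A498 cells, read out with a cell viability assay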
Description: SANGER: Inhibition of human A498 cell growth in a cell viability assay.

NCI-H209 = format: functional, cell-based, Homo sapiens; settings: Homo sapiens, NCI-H209;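 note: growth inhibition of human NCI-H209 cells, measured by a cell viability assay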
Description: SANGER: Inhibition of human NCI-H209 cell growth in a cell viability assay.

KM-H2 = format: functional, cell-based, Homo sapiens; settings: Homo sapiens, KM-H2;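 note: growth inhibition of KM-H2 cells, read out by a cell viability assay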
Description: SANGER: Inhibition of human KM-H2 cell growth in a cell viability assay.

LC-2-ad = format: functional, cell-based, Homo sapiens; settings: Homo sapiens, LC-2-ad;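 note: growth inhibition of human LC-2-ad cells, read out with a cell viability assay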
Description: SANGER: Inhibition of human LC-2-ad cell growth in a cell viability assay.

EW-3 = format: functional, cell-based, Homo sapiens; settings: Homo sapiens, EW-3;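 note: cell viability assay read-out, IC50 reflects inhibition of growth of the EW-3 cells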
Description: SANGER: Inhibition of human EW-3 cell growth in a cell viability assay.

MZ7-mel = format: functional, cell-based, Homo sapiens; settings: Homo sapiens, MZ7-mel;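 note: growth inhibition of human MZ7-mel cells, measured by a cell viability assay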
Description: SANGER: Inhibition of human MZ7-mel cell growth in a cell viability assay.

TK-10 = format: functional, cell-based, Homo sapiens; settings: Homo sapiens, TK-10;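 note: growth inhibition of TK-10 cells, read out in a cell viability assay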
Description: SANGER: Inhibition of human TK10 cell growth in a cell viability assay.

LB996-RCC = format: functional, cell-based, Homo sapiens; settings: Homo sapiens, LB996-RCC
Description: SANGER: Inhibition of human LB996-RCC cell growth in a cell viability assay.

NB10 = format: functional, cell-based, Homo sapiens; settings: Homo sapiens, NB10;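 note: growth inhibition of NB10 cells, read out by a cell viability assay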
Description: SANGER: Inhibition of human NB10 cell growth in a cell viability assay.

NEC8 = format: functional, cell-based, Homo sapiens; settings: Homo sapiens, NEC8;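 note: growth inhibition of human NEC8 cells, read out by a cell viability assay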
Description: SANGER: Inhibition of human NEC8 cell growth in a cell viability assay.

A704 = format: functional, cell-based, Homo sapiens; settings: Homo sapiens, A704;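 note: growth inhibition of human A704 cells, read out with a cell viability assay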
Description: SANGER: Inhibition of human A704 cell growth in a cell viability assay.

PSN1 = format: functional, cell-based, Homo sapiens; settings: Homo sapiens, PSN1;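 note: suppression of growth of human PSN1 cells, read out by a cell viability assay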
Description: SANGER: Inhibition of human PSN1 cell growth in a cell viability assay.

NCI-H226 = format: functional, cell-based, Homo sapiens; settings: Homo sapiens, NCI-H226;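 note: cell viability read-out used to gauge growth inhibition of the cells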
Description: SANGER: Inhibition of human NCI-H226 cell growth in a cell viability assay.

GT3TKB = format: functional, cell-based, Homo sapiens; settings: Homo sapiens, GT3TKB;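 note: growth inhibition of the cell line, read out with a cell viability assay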
Description: SANGER: Inhibition of human GT3TKB cell growth in a cell viability assay.

ES1 = format: functional, cell-based, Homo sapiens; settings: Homo sapiens, ES1;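 note: growth inhibition of ES1 cells, read out with a cell viability assay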
Description: SANGER: Inhibition of human ES1 cell growth in a cell viability assay.

KINGS-1 = format: functional, cell-based, Homo sapiens; settings: Homo sapiens, KINGS-1;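 note: cell viability assay measuring suppression of KINGS-1 cell growth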
Description: SANGER: Inhibition of human KINGS-1 cell growth in a cell viability assay.

no-11 = format: functional, cell-based, Homo sapiens; settings: Homo sapiens;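 note: growth inhibition of human NO-11 cells, read out with a cell viability assay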
Description: SANGER: Inhibition of human no-11 cell growth in a cell viability assay.

ES8 = format: functional, cell-based, Homo sapiens; settings: Homo sapiens, ES8;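 note: growth inhibition of human ES8 cells, read out with a cell viability assay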
Description: SANGER: Inhibition of human ES8 cell growth in a cell viability assay.

KMOE-2 = format: functional, cell-based, Homo sapiens; settings: Homo sapiens, KMOE-2;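 note: growth inhibition of human KMOE-2 cells, read out with a cell viability assay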
Description: SANGER: Inhibition of human KMOE-2 cell growth in a cell viability assay.

SK-MEL-2 = format: functional, cell-based, Homo sapiens; settings: Homo sapiens, SK-MEL-2;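 note: growth inhibition of human SK-MEL-2 cells measured with a cell viability assay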
Description: SANGER: Inhibition of human SK-MEL-2 cell growth in a cell viability assay.

SHP77 = format: functional, cell-based, Homo sapiens, SHP-77; settings: Homo sapiens, SHP77;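 note: growth inhibition of human SHP-77 cells measured by a cell viability assay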
Description: SANGER: Inhibition of human SHP-77 cell growth in a cell viability assay.

SW684 = format: functional, cell-based, Homo sapiens; settings: Homo sapiens, SW684;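 note: growth inhibition of human SW684 cells, measured by a cell viability assay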
Description: SANGER: Inhibition of human SW684 cell growth in a cell viability assay.

D-502MG = format: functional, cell-based, Homo sapiens; settings: Homo sapiens, D-502MG
Description: SANGER: Inhibition of human D-502MG cell growth in a cell viability assay.

SH-4 = format: functional, cell-based, Homo sapiens; settings: Homo sapiens, SH-4;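 note: growth inhibition of SH-4 cells, read out with a cell viability assay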
Description: SANGER: Inhibition of human SH-4 cell growth in a cell viability assay.

ALL-PO = format: functional, cell-based, Homo sapiens; settings: Homo sapiens, ALL-PO;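 note: growth inhibition of ALL-PO cells, read out by a cell viability assay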
Description: SANGER: Inhibition of human ALL-PO cell growth in a cell viability assay.

SF-268 = format: functional, cell-based, Homo sapiens; settings: Homo sapiens, SF-268;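 note: growth inhibition of SF-268 cells determined with a cell viability assay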
Description: SANGER: Inhibition of human SF268 cell growth in a cell viability assay.

HOP-62 = format: functional, cell-based, Homo sapiens; settings: Homo sapiens, HOP-62;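 note: cell growth inhibition determined with a viability assay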
Description: SANGER: Inhibition of human HOP-62 cell growth in a cell viability assay.

COLO-668 = format: functional, cell-based, Homo sapiens; settings: Homo sapiens, COLO-668
Description: SANGER: Inhibition of human COLO-668 cell growth in a cell viability assay.

MFH-ino = format: functional, cell-based, Homo sapiens; settings: Homo sapiens, MFH-ino;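 note: growth inhibition of human MFH-ino cells, read out by a cell viability assay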
Description: SANGER: Inhibition of human MFH-ino cell growth in a cell viability assay.

SW982 = format: functional, cell-based, Homo sapiens; settings: Homo sapiens, SW982;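 note: growth inhibition of SW982 cells, read out with a cell viability assay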
Description: SANGER: Inhibition of human SW982 cell growth in a cell viability assay.

BB30-HNC = format: functional, cell-based, Homo sapiens; settings: Homo sapiens, BB30-HNC;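 note: growth inhibition of the cultured cell line, read out by a cell viability assay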
Description: SANGER: Inhibition of human BB30-HNC cell growth in a cell viability assay.

U-87 MG = format: functional, cell-based, Homo sapiens, U-87MG ATCC; settings: Homo sapiens, U-87 MG;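 note: growth inhibition of the cells measured with a viability assay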
Description: SANGER: Inhibition of human U-87-MG cell growth in a cell viability assay.

GAK = format: functional, cell-based, Homo sapiens; settings: Homo sapiens, GAK;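 note: cell growth inhibition read out by a cell viability assay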
Description: SANGER: Inhibition of human GAK cell growth in a cell viability assay.

EW-16 = format: functional, cell-based, Homo sapiens; settings: Homo sapiens, EW-16;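 note: growth inhibition of human EW-16 cells, read out as cell viability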
Description: SANGER: Inhibition of human EW-16 cell growth in a cell viability assay.

`COc1cc(-c2nn([C@H]3CC[C@H](N4CCN(C(C)=O)CC4)CC3)c3ncnc(N)c23)ccc1NC(=O)c1cc2ccccc2n1C` was tested, and the IC50 (IST-MEL1) was 838 nM, the IC50 (MZ2-MEL) was greater than 5120 nM and the IC50 (BT-474) was greater than 5120 nM. The IC50 (ACN) was greater than 5120 nM, the IC50 (LS-411N) was greater than 5120 nM and the IC50 (SW 954) was 696 nM. It also gave an IC50 (HEL) greater than 5120 nM, an IC50 (RPMI-8226) greater than 5120 nM and an IC50 (EM-2) of 337 nM. The IC50 (MPP-89) was greater than 5120 nM, the IC50 (KNS-81-FD) was greater than 5120 nM and the IC50 (KE-37) was greater than 5120 nM. For the same molecule, the IC50 (CGTH-W-1) was greater than 5120 nM, the IC50 (OCUB-M) was 5030 nM and the IC50 (A498) was greater than 5120 nM. For the same molecule, the IC50 (NCI-H209) was greater than 5120 nM, the IC50 (KM-H2) was greater than 5120 nM and the IC50 (LC-2-ad) was 483 nM. It also gave an IC50 (EW-3) greater than 5120 nM, an IC50 (MZ7-mel) greater than 5120 nM and an IC50 (TK-10) of 596 nM. For the same molecule, the IC50 (LB996-RCC) was 74.6 nM, the IC50 (NB10) was greater than 5120 nM and the IC50 (NEC8) was greater than 5120 nM. For the same molecule, the IC50 (A704) was 1150 nM, the IC50 (PSN1) was 1140 nM and the IC50 (NCI-H226) was greater than 5120 nM. For the same molecule, the IC50 (GT3TKB) was greater than 5120 nM, the IC50 (ES1) was greater than 5120 nM and the IC50 (KINGS-1) was greater than 5120 nM. The IC50 (no-11) was greater than 5120 nM, the IC50 (ES8) was greater than 5120 nM and the IC50 (KMOE-2) was greater than 5120 nM. For the same molecule, the IC50 (SK-MEL-2) was greater than 5120 nM, the IC50 (SHP77) was greater than 5120 nM and the IC50 (SW684) was greater than 5120 nM. For the same molecule, the IC50 (D-502MG) was greater than 5120 nM, the IC50 (SH-4) was 913 nM and the IC50 (ALL-PO) was greater than 5120 nM. For the same molecule, the IC50 (SF-268) was 3960 nM, the IC50 (HOP-62) was 475 nM and the IC50 (COLO-668) was greater than 5120 nM. For the same molecule, the IC50 (MFH-ino) was 1160 nM, the IC50 (SW982) was 387 nM and the IC50 (BB30-HNC) was 874 nM. The IC50 (U-87 MG) was greater than 5120 nM, the IC50 (GAK) was greater than 5120 nM and the IC50 (EW-16) was 3590 nM.
`CC(=O)O[C@H]1C(=O)[C@@]2(C)[C@H]([C@H](OC(=O)c3ccccc3)[C@]3(O)C[C@H](OC(=O)[C@H](O)[C@@H](NC(=O)c4ccccc4)c4ccccc4)C(C)=C1C3(C)C)[C@]1(OC(C)=O)CO[C@@H]1C[C@@H]2O` [PACLITAXEL] showed an IC50 (IST-MEL1) of 26.2 nM, an IC50 (MZ2-MEL) of 47.4 nM and an IC50 (BT-474) greater than 102 nM. For the same molecule, the IC50 (ACN) was 3.16 nM, the IC50 (LS-411N) was 7.17 nM and the IC50 (SW 954) was 1.19 nM. For the same molecule, the IC50 (HEL) was 41.4 nM, the IC50 (RPMI-8226) was 11 nM and the IC50 (EM-2) was greater than 102 nM. The IC50 (MPP-89) was greater than 102 nM, the IC50 (KNS-81-FD) was greater than 102 nM and the IC50 (KE-37) was 12.3 nM. It also gave an IC50 (CGTH-W-1) of 54.5 nM, an IC50 (OCUB-M) of 6.62 nM and an IC50 (A498) greater than 102 nM. The IC50 (NCI-H209) was 97.9 nM, the IC50 (KM-H2) was 33.1 nM and the IC50 (LC-2-ad) was 0.317 nM. For the same molecule, the IC50 (EW-3) was greater than 102 nM, the IC50 (MZ7-mel) was 40.4 nM and the IC50 (TK-10) was 33.6 nM. It also gave an IC50 (LB996-RCC) of 77.1 nM, an IC50 (NB10) greater than 102 nM and an IC50 (NEC8) of 52.9 nM. For the same molecule, the IC50 (A704) was greater than 102 nM, the IC50 (PSN1) was 1.3 nM and the IC50 (NCI-H226) was greater than 102 nM. For the same molecule, the IC50 (GT3TKB) was 4.34 nM, the IC50 (ES1) was 12.9 nM and the IC50 (KINGS-1) was 23.6 nM. It also gave an IC50 (no-11) of 34.8 nM, an IC50 (ES8) of 5.38 nM and an IC50 (KMOE-2) greater than 102 nM. It also gave an IC50 (SK-MEL-2) greater than 102 nM, an IC50 (SHP77) greater than 102 nM and an IC50 (SW684) greater than 102 nM. The IC50 (D-502MG) was greater than 102 nM, the IC50 (SH-4) was 18.9 nM and the IC50 (ALL-PO) was 6.3 nM. The IC50 (SF-268) was 11.5 nM, the IC50 (HOP-62) was 12.8 nM and the IC50 (COLO-668) was greater than 102 nM. The IC50 (MFH-ino) was 2.68 nM, the IC50 (SW982) was 7.66 nM and the IC50 (BB30-HNC) was 3.14 nM. The IC50 (U-87 MG) was greater than 102 nM, the IC50 (GAK) was 102 nM and the IC50 (EW-16) was 6.94 nM.
